pIC50: −log10 of the molar value. Where a name gives a salt, the structure may show the parent alone.
Columns and labels:
[1] = target: T1, cephalosporinase (Pseudomonas aeruginosa, UniProt P24735); test: β-lactamase inhibitory activity, spectrophotometric rate assay with nitrocefin as substrate; type: biochemical, P. aeruginosa 46012
T1 construct: nitrocefin as substrate; purification not described
Description: As already said, the oxyimino fragment i.e., =N--OR2 in the formula (I) in its `anti` orientation provides excellent synergy with a β-lactam antibiotic against class C β-lactamase (cephalosporinase) producing microorganisms, P. aeruginosa, in particular. Thus this invention includes only those compounds having the formula (I) in which the oxyimino group (=N--OR2) is specifically in the `anti` orientation as shown in (I). Furthermore, the inhibitory activity against the isolated β-lactamase (e.g., cephalosporinase from P. aeruginosa 46012) and the synergy with a β-lactam antibiotic is greatly influenced by the nature of the heterocyclic ring represented by R1 and the nature of the substituent in the oxime fragment represented by R2.
The inhibitory activities of present compounds (β-lactamase inhibitors) against cephalosporinase was measured by spectrophotometric rate assay using […] and using nitrocefin as a substrate (J. Antimicrob. Chemother., vol. 28, pp 775-776, 1991).

[2] = system: β-lactamase; conditions: cited from earlier work
[3] = system: P. aeruginosa M 2297; test: MIC of ceftazidime, microbroth dilution; type: cell-based; conditions: Pseudomonas aeruginosa, M2297, 18 h, read-out: MIC of ceftazidime alone
Description: (§1) […]. After incubation in Mueller-Hinton Broth (Difco) at 37° C. for 18 h, the bacterial suspension was diluted and about 10^5 CFU/ml was applied to the drug-containing Mueller-Hinton Broth in each well of 96 well plate. The MICs were recorded after 18 h of incubation at 37° C. on the lowest combinations of drug that inhibited visible growth of bacteria.

[4] = system: M. morganii 36014; test: MIC of ceftazidime, microbroth dilution; type: cell-based; conditions: Morganella morganii, 36014, 18 h, read-out: MIC of ceftazidime alone
Description: as §1

[5] = system: E. aerogenes S-95; test: MIC of ceftazidime, microbroth dilution; type: cell-based; conditions: Klebsiella aerogenes, S95, 18 h, read-out: MIC of ceftazidime alone
Description: as §1

[6] = system: P. aeruginosa PAO 303 carb-4; test: MIC of ceftazidime, microbroth dilution; type: cell-based; conditions: Pseudomonas aeruginosa, PAO303CARB4, 18 h, read-out: MIC of ceftazidime alone
Description: as §1

[7] = system: P. aeruginosa 46017; test: MIC of ceftazidime, microbroth dilution; type: cell-based; conditions: Pseudomonas aeruginosa, 46017, 18 h, read-out: MIC of ceftazidime alone
Description: as §1

[8] = system: P. aeruginosa AU-5; test: MIC of ceftazidime, microbroth dilution; type: cell-based; conditions: Pseudomonas aeruginosa, AU5, 18 h, read-out: MIC of ceftazidime alone
Description: as §1

[9] = system: P. aeruginosa CT-122; test: MIC of ceftazidime, microbroth dilution; type: cell-based; conditions: Pseudomonas aeruginosa, CT122, 18 h, read-out: MIC of ceftazidime alone
Description: as §1

[10] = system: P. aeruginosa AU-10; test: MIC of ceftazidime, microbroth dilution; type: cell-based; conditions: Pseudomonas aeruginosa, AU10, 18 h, read-out: MIC of ceftazidime alone
Description: as §1

[11] = system: P. aeruginosa CT-144; test: MIC of ceftazidime, microbroth dilution; type: cell-based; conditions: Pseudomonas aeruginosa, CT144, 18 h, read-out: MIC of ceftazidime alone
Description: as §1

[12] = system: P. aeruginosa sp 2439 Wt.; test: MIC of ceftazidime, microbroth dilution; type: cell-based; conditions: Pseudomonas aeruginosa, SP2439WT., 18 h, read-out: MIC of ceftazidime alone
Description: as §1

[13] = system: E. aerogenes 41006; test: MIC of ceftazidime, microbroth dilution; type: cell-based; conditions: Klebsiella aerogenes, 41006, 18 h, read-out: MIC of ceftazidime alone
Description: as §1

[14] = system: P. aeruginosa 46220 DR-2-1; test: MIC of ceftazidime, microbroth dilution; type: cell-based; conditions: Pseudomonas aeruginosa, 46220DR21, 18 h, read-out: MIC of ceftazidime alone
Description: as §1

[15] = system: P. fluorescens sp 5953; test: MIC of ceftazidime, microbroth dilution; type: cell-based; conditions: Pseudomonas fluorescens, SP5953, 18 h, read-out: MIC of ceftazidime alone
Description: as §1

[16] = system: P. aeruginosa 46012 (R); test: MIC of ceftazidime, microbroth dilution; type: cell-based; conditions: Pseudomonas aeruginosa, 18 h, read-out: MIC of ceftazidime alone
Description: as §1

[17] = system: P. aeruginosa CT-137; test: MIC of ceftazidime, microbroth dilution; type: cell-based; conditions: Pseudomonas aeruginosa, CT137, 18 h, read-out: MIC of ceftazidime alone
Description: as §1

[18] = system: P. aeruginosa L46004; test: MIC of ceftazidime, microbroth dilution; type: cell-based; conditions: Pseudomonas aeruginosa, L46004, 18 h, read-out: MIC of ceftazidime alone
Description: as §1

[19] = system: P. aeruginosa M 1405; test: MIC of ceftazidime, microbroth dilution; type: cell-based; conditions: Pseudomonas aeruginosa, M1405, 18 h, read-out: MIC of ceftazidime alone
Description: as §1

[20] = system: P. aeruginosa AU-8; test: MIC of ceftazidime, microbroth dilution; type: cell-based; conditions: Pseudomonas aeruginosa, AU8, 18 h, read-out: MIC of ceftazidime alone
Description: as §1

[21] = system: M. morganii 36030; test: MIC of ceftazidime, microbroth dilution; type: cell-based; conditions: Morganella morganii, 36030, 18 h, read-out: MIC of ceftazidime alone
Description: as §1

[22] = system: P. aeruginosa AU-7; test: MIC of ceftazidime, microbroth dilution; type: cell-based; conditions: Pseudomonas aeruginosa, AU7, 18 h, read-out: MIC of ceftazidime alone
Description: as §1

[23] = system: P. aeruginosa AU-1; test: MIC of ceftazidime, microbroth dilution; type: cell-based; conditions: Pseudomonas aeruginosa, AU1, 18 h, read-out: MIC of ceftazidime alone
Description: as §1

[24] = system: E. cloacae P99; test: microbe, parasite or virus in culture; type: cell-based; conditions: Enterobacter cloacae, P99, 18 h, read-out: MIC of ceftazidime alone
Description: (§2) After incubation in Mueller-Hinton Broth (Difco) at 37° C. for 18 h, the bacterial suspension was diluted and about 10^5 CFU/ml was applied to the drug-containing Mueller-Hinton Broth in each well of 96 well plate. The MICs were recorded after 18 h of incubation at 37° C. on the lowest combinations of drug that inhibited visible growth of bacteria.

[25] = system: E. cloacae 40054; test: MIC of ceftazidime, microbroth dilution; type: cell-based; conditions: Enterobacter cloacae, 40054, 18 h, read-out: MIC of ceftazidime alone
Description: as §2

[26] = system: E. cloacae MNH-2; test: MIC of ceftazidime, microbroth dilution; type: cell-based; conditions: Enterobacter cloacae, MNH2, 18 h, read-out: MIC of ceftazidime alone
Description: as §2

[27] = system: P. aeruginosa 46220 DR-2; test: MIC of ceftazidime, microbroth dilution; type: cell-based; conditions: Pseudomonas aeruginosa, 46220DR2, alone, 18 h, 37° C.
Description: as §2, with “The MICs of the antibiotics (ceftazidime) alone, the MICs of ceftazidime in combination with reference compounds particularly aztreonam (ref. compd. I) and the MICs of the β-lactamase inhibitors (10 μg/ml) of the present invention in combination with ceftazidime were determined with the same β-lactamase producing bacteria. After” for “After”

T1 sequence (P24735 27-397): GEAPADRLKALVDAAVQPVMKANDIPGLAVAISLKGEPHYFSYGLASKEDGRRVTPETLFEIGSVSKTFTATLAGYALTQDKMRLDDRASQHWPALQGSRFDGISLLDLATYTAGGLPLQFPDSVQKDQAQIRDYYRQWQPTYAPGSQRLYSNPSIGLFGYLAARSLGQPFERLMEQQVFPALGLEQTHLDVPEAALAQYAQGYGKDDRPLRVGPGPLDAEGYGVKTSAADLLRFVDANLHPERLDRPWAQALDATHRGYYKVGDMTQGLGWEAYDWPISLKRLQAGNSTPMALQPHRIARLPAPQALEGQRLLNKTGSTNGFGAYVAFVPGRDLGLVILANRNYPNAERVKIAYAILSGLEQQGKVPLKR

With `C/C(=N/OCc1cc(=O)c(O)cn1O)C(=O)NCCO/N=C(/C(=O)N[C@@H]1C(=O)N(S(=O)(=O)O)[C@H]1C)c1cccs1` [Compound 11] the pIC50 [1] was 7.30.
In the case of `C[C@H]1[C@H](NC(=O)/C(=N/OCCSCc2cc(=O)c(O)cn2O)c2cccs2)C(=O)N1S(=O)(=O)O` [Compound 7], the pIC50 [1] was 7.22.
`C[C@H]1[C@H](NC(=O)/C(=N/OCCNC(=O)/C(=N\OCc2cc(=O)c(O)cn2O)c2csc(N)n2)c2cccs2)C(=O)N1S(=O)(=O)O` [Compound 12] gave a pIC50 [1] of 8.22.
`C[C@H]1[C@H](NC(=O)/C(=N/OCCNC(=O)c2cc(=O)c(O)c[nH]2)c2cccs2)C(=O)N1S(=O)(=O)O` [Compound 13] showed a pIC50 [1] of 8.00.
For `C[C@H]1[C@H](NC(=O)/C(=N\OC(C)(C)C(=O)O)c2csc(N)n2)C(=O)N1S(=O)(=O)O` [Ref. compd. I, Aztreonam], the β-lactamase inhibitory properties [2] is listed as “possesses β-lactamase inhibitory properties” and the pIC50 [1] is listed as 6.89.
`C[C@H]1[C@H](NC(=O)/C(=N/OCc2cc(=O)c(O)cn2O)c2cccs2)C(=O)N1S(=O)(=O)O` [Compound 1, (3S)-trans-3-[(E)-2-(2-thienyl)-2-{(1,5-dihydroxy-4-pyridon-2-ylmethoxy)imino}acetamido]-4-methyl-2-oxoazetidine-1-sulfonic acid] gave a pIC50 [1] of 7.22.
Molecule `C[C@H]1[C@H](NC(=O)/C(=N/OCc2cc(=O)c(O)cn2O)c2cccn2C)C(=O)N1S(=O)(=O)O` [Compound 15] has a pIC50 [1] of 6.05.
Work on `C[C@H]1[C@H](NC(=O)/C(=N/OCc2cc(=O)c(O)c[nH]2)c2cccs2)C(=O)N1S(=O)(=O)O` [Compound 14, (3S)-trans-3-[(E)-2-(2-thienyl)-2{(5-hydroxy-4-pyridon-2-ylmethoxy)imino}acetamido]-4-methyl-2-oxoazetidine-1-sulfonic acid, potassium salt] yielded a pIC50 [1] of 7.40.
Molecule `CC(O/N=C(/C(=O)N[C@@H]1C(=O)N(S(=O)(=O)O)[C@H]1C)c1cccs1)c1cc(=O)c(O)cn1O` (some centres unmarked) [Compound 4] has a pIC50 [1] of 7.22.
Molecule `C[C@H]1[C@H](NC(=O)/C(=N/OCc2cc(=O)c(O)cn2O)c2cccs2)C(=O)N1S(=O)(=O)O` [Compound 3] has a pIC50 [1] of 8.00.
In the case of `C[C@H]1[C@H](NC(=O)/C(=N\OCc2cc(=O)c(O)cn2O)c2cccs2)C(=O)N1S(=O)(=O)O` [Ref. compd. III], the pIC50 [1] was 7.40.
`C[C@H]1[C@H](NC(=O)/C(=N/OCc2cc(=O)c(O)cn2O)c2cccs2)C(=O)N1S(=O)(=O)O` [Compound 2] gave a pIC50 [1] of 7.40.
Molecule `C[C@H]1[C@H](NC(=O)/C(=N/OCC(N)COC(=O)/C(=N\OCc2cc(=O)c(O)cn2O)c2cccs2)c2cccs2)C(=O)N1S(=O)(=O)O` (some centres unmarked) [Compound 16] has a pIC50 [1] of 8.35.
`CC(C)(O/N=C(\C(=O)N[C@@H]1C(=O)N2C(C(=O)[O-])=C(C[n+]3ccccc3)CS[C@H]12)c1csc(N)n1)C(=O)O` [ceftazidime] showed an MIC [3] greater than 32 µg/mL, an MIC [4] of 32 µg/mL and an MIC [5] greater than 32 µg/mL. The MIC [6] was 32 µg/mL, the MIC [7] was greater than 32 µg/mL and the MIC [8] was greater than 32 µg/mL. It also gave an MIC [9] of 32 µg/mL, an MIC [10] of 32 µg/mL and an MIC [11] greater than 32 µg/mL. For the same molecule, the MIC [12] was greater than 32 µg/mL, the MIC [13] was greater than 32 µg/mL and the MIC [14] was greater than 32 µg/mL. The MIC [15] was greater than 32 µg/mL, the MIC [16] was greater than 32 µg/mL and the MIC [17] was 16 µg/mL. For the same molecule, the MIC [18] was greater than 32 µg/mL, the MIC [19] was greater than 32 µg/mL and the MIC [20] was greater than 32 µg/mL. The MIC [21] was greater than 32 µg/mL, the MIC [22] was greater than 32 µg/mL and the MIC [23] was greater than 32 µg/mL. It also gave an MIC [24] greater than 32 µg/mL, an MIC [25] greater than 32 µg/mL and an MIC [26] greater than 32 µg/mL. It also gave an MIC [27] of 32 µg/mL.
Work on `C=CCC(O/N=C(/C(=O)N[C@@H]1C(=O)N(S(=O)(=O)O)[C@H]1C)c1cccs1)c1cc(=O)c(O)cn1O` (some centres unmarked) [Compound 5] yielded a pIC50 [1] of 7.30.
Molecule `C[C@H]1[C@H](NC(=O)/C(=N/OCCNC(=O)/C(=N/OCc2cc(=O)c(O)cn2O)c2cccs2)c2cccs2)C(=O)N1S(=O)(=O)O` [Compound 10] has a pIC50 [1] of 9.00.
With `C[C@H]1[C@H](NC(=O)/C(=N/OC(c2ccc(F)cc2)c2cc(=O)c(O)cn2O)c2cccs2)C(=O)N1S(=O)(=O)O` (some centres unmarked) [Compound 6] the pIC50 [1] was 7.00.
For `C[C@H]1[C@H](NC(=O)/C(=N/OCCNC(=O)/C(=N\OCc2cc(=O)c(O)cn2O)c2cccs2)c2cccs2)C(=O)N1S(=O)(=O)O` [Compound 9], the pIC50 [1] was 8.22.
`C[C@H]1[C@H](NC(=O)/C(=N/OC(C)(C)C(=O)O)c2csc(N)n2)C(=O)N1S(=O)(=O)O` [Ref. compd. II] showed a pIC50 [1] of 5.70.

— patent US5888998A, “2-oxo-1-azetidine sulfonic acid derivatives as potent β-lactamase inhibitors” (Synphar Laboratories, Inc., priority 1997, dated 1999)
